Measured values from ChEMBL document CHEMBL1145756, “Structure-activity relationships of indole cytosolic phospholipase A(2)alpha inhibitors: substrate mimetics” (Bioorg Med Chem Lett, 2003).

Key:
[1] = target: T1, Cytosolic phospholipase A2 (Homo sapiens, UniProt P47712); assay: In vitro inhibition of cystolic phospholipase A2 alpha.
T1 sequence (P47712 whole entry): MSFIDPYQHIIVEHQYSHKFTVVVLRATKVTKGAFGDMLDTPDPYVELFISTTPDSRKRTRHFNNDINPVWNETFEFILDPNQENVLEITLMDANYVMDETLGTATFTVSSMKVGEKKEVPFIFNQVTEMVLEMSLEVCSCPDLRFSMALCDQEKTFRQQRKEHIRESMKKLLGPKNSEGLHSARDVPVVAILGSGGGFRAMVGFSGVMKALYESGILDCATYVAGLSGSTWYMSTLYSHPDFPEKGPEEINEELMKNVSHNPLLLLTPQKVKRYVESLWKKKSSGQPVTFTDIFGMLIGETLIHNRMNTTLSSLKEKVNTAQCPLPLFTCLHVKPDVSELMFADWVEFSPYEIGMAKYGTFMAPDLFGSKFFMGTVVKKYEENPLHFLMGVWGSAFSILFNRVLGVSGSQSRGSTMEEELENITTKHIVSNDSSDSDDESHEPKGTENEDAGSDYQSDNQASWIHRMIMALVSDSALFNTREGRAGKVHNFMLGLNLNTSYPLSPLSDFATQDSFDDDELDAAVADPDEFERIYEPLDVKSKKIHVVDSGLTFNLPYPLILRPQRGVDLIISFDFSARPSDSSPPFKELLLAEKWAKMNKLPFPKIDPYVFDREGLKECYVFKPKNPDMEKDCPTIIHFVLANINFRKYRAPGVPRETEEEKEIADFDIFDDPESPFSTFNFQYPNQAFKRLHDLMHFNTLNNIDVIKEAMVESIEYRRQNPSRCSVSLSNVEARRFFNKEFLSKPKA

[2] = Oral bioavailability in rat (dose 10 mg/kg); assay type: ADME, organism-based; details: in vivo
[3] = target: T1, Cytosolic phospholipase A2; assay: Inhibitory concentration against cystolic phospholipase A2 alpha receptor (c-PLA2 alpha) using coumarin assay
[4] = organism: Homo sapiens; assay: Inhibitory concentration against arachidonic acid release determined in human neutrophils PMN assay; assay type: functional

| SMILES | IC50 [1] | bioavailability [2] | IC50 [3] | IC50 [4] |
| --- | --- | --- | --- | --- |
| COc1cc(C(=O)NS(=O)(=O)c2ccccc2C)ccc1Cc1cn(C2CCCC2)c2ccc(NC(=O)OC3CCCC3)cc12 | 17000 nM | – | – | – |
| COc1cc(C(=O)NS(=O)(=O)c2ccccc2C)ccc1Cc1cn(C)c2ccc(NC(=O)OC3CCCC3)cc12 [ZAFIRLUKAST] | 85000 nM | – | – | – |
| COc1cc(C(=O)O)ccc1Cc1cn(C(c2ccccc2)c2ccccc2)c2c(Cl)cccc12 | 2100 nM | – | – | – |
| COc1ccc2c(c1)c(Cc1ccc(C(=O)O)cc1OC)cn2C(c1ccccc1)c1ccccc1 | 1900 nM | – | – | – |
| COc1cc(C(=O)O)ccc1Cc1cn(C(c2ccccc2)c2ccccc2)c2ccc(Cl)cc12 | – | 22% | 400 nM | 1800 nM |
| COc1cc(C(=O)O)ccc1Cc1cn(C(c2ccccc2)c2ccccc2)c2ccc(S(C)(=O)=O)cc12 | 2000 nM | – | – | – |
| COc1cc(C(=O)O)ccc1Cc1cn(C(c2ccccc2)c2ccccc2)c2ccc(C)cc12 | – | 38% | 900 nM | – |
| COc1cc(C(=O)O)ccc1Cc1cn(C(c2ccccc2)c2ccccc2)c2ccccc12 | 3600 nM | – | – | – |
| COc1cc(C(=O)O)ccc1Cc1cn(C(c2ccccc2)c2ccccc2)c2cc(Cl)ccc12 | 800 nM | 63% | – | – |
| COc1cc(C(=O)O)ccc1Cc1cn(C(c2ccccc2)c2ccccc2)c2ccc(N(C)C)cc12 | 24000 nM | – | – | – |
| COc1cc(C(=O)O)ccc1Cc1cn(C(c2ccccc2)c2ccccc2)c2ccc(NS(C)(=O)=O)cc12 | 20000 nM | – | – | – |
| COc1cc(C(=O)O)ccc1Cc1cn(C(c2ccccc2)c2ccccc2)c2ccc([N+](=O)[O-])cc12 | – | – | 400 nM | 1800 nM |

Results, then the compound that gave them:

| IC50 [1] | bioavailability [2] | IC50 [3] | IC50 [4] | SMILES |
| --- | --- | --- | --- | --- |
| 15000 nM | – | – | – | CCCCNC(=O)Nc1ccc2c(c1)c(Cc1ccc(C(=O)O)cc1OC)cn2C(c1ccccc1)c1ccccc1 |
| 20000 nM | – | – | – | COc1cc(C(=O)NS(=O)(=O)c2ccccc2C)ccc1Cc1cn(CC2CC2)c2ccc(NC(=O)OC3CCCC3)cc12 |
| 4500 nM | – | – | – | COc1cc(C(=O)O)ccc1Cc1cn(C(c2ccccc2)c2ccccc2)c2cccc(Cl)c12 |
| 38000 nM | – | – | – | COc1cc(C(=O)NS(=O)(=O)c2ccccc2C)ccc1Cc1cn(Cc2ccncc2)c2ccc(NC(=O)OC3CCCC3)cc12 |
| 1000 nM | – | – | – | COc1cc(C(=O)O)ccc1Cc1cn(C(c2ccccc2)c2ccccc2)c2ccc(F)cc12 |
| 6000 nM | – | – | – | COc1cc(C(=O)NS(=O)(=O)c2ccccc2C)ccc1Cc1cn(C(c2ccccc2)c2ccccc2)c2ccc(NC(=O)OC3CCCC3)cc12 |
| – | 19% | 800 nM | 1300 nM | COc1cc(C(=O)O)ccc1Cc1cn(C(c2ccccc2)c2ccccc2)c2ccc(C#N)cc12 |
| 5000 nM | – | – | – | COc1cc(C(=O)O)ccc1Cc1cn(C(c2ccccc2)c2ccccc2)c2ccc(NC(=O)OC3CCCC3)cc12 |
| – | 16% | 600 nM | 1200 nM | COc1cc(C(=O)O)ccc1Cc1cn(C(c2ccccc2)c2ccccc2)c2ccc(Br)cc12 |
| 41000 nM | – | – | – | COc1cc(C(=O)O)ccc1Cc1cn(C(c2ccccc2)c2ccccc2)c2ccc(N)cc12 |
